The text below walks through data of patent US10363239B2, “Method for inhibiting growth of cancer cells” (Pain Therapeutics, Inc., priority 2013, dated 2019).

For experiment [1], the system named is mu opiate receptor (MOR). Put plainly: MOR agonist activity using [35S]GTPγS binding assay in striatal membranes. The class given is biochemical. A digest of the protocol: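 Striatal membranes (200 μg) were preincubated 5 min at 30 °C in HEPES pH 7.5 with 100 mM NaCl, 1 mM MgCl2 and 0.5 nM [35S]GTPγS, then 5 min more with 0.1–10 μM compound. Gαo was immunoprecipitated and bound radioactivity counted by scintillation.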
For orientation: GTPγS resists hydrolysis and so accumulates on activated G proteins.

In experiment [2] the target is FLNA pentapeptide of SEQ ID NO: 1 (Bn-VAKGL) (Homo sapiens, UniProt P21333). The experiment in a line: FITC-NLX-based FLNA screening assay (inhibition of FITC-naloxone binding to Bn-VAKGL on streptavidin plates). To be noted: 10 nM FITC-NLX.
Where [3] appears, read: FLNA-binding compound 0.01 μM, read-out: Percent Binding Inhibition.
Where [4] appears, read: FLNA-binding compound 0.1 μM, read-out: Percent Binding Inhibition.
[5] abbreviates: FLNA-binding compound 1 μM, read-out: Percent Binding Inhibition.
Setting [6] is: Series C-2, 0.1 μM compound, relative to DAMGO.
Setting [7] is: Series C-2, 0.1 μM compound, [35S]GTPγS binding to Gαo, striatal membranes.
Where [8] appears, read: Series C-2, 1 μM compound + 1 μM β-FNA.
[9] abbreviates: Series C-2, 1 μM compound + β-FNA, relative to DAMGO + BFNA.
Setting [10] is: Series C-2, 1 μM compound, relative to DAMGO.
[11] abbreviates: Series C-2, 1 μM compound, [35S]GTPγS binding to Gαo, striatal membranes.
Setting [12] is: Series C-1, 0.1 μM compound, relative to DAMGO.
[13] abbreviates: Series C-1, 0.1 μM compound, [35S]GTPγS binding to Gαo, striatal membranes.
[14] abbreviates: Series C-1, 1 μM compound + 1 μM β-FNA.
[15] abbreviates: Series C-1, 1 μM compound + β-FNA, relative to DAMGO + BFNA.
Setting [16] is: Series C-1, 1 μM compound, relative to DAMGO.
[17] abbreviates: Series C-1, 1 μM compound, [35S]GTPγS binding to Gαo, striatal membranes.
Where [18] appears, read: read-out: Percent Binding Inhibition, FLNA-binding compound 0.01 μM.
The mark [19] stands for this setting: read-out: Percent Binding Inhibition, FLNA-binding compound 0.1 μM.
Setting [20] is: read-out: Percent Binding Inhibition, FLNA-binding compound 1 μM.

Where two headings read alike, the source gives them in different places.

As for `CC1CCC(C(C)C)C(OCC(O)CN2CCSC2)C1` (stereo not drawn) [Compound A0002], the “MOR agonist activity ([35S]GTPγS binding), FLNA-Binding Compound as Agonist 0.1 μM” value in experiment [1] (0.1 μM compound) came out at 155.6%. Besides, in experiment [1] (0.1 μM compound relative to DAMGO), the “% DAMGO (0.1 μM)” value amounted to 104.1%. In addition, the “MOR agonist activity ([35S]GTPγS binding), FLNA-Binding Compound as Agonist 1 μM” value in experiment [1] (1 μM compound) was 199.4%. The “MOR agonist activity ([35S]GTPγS binding), FLNA-Binding Compound as Agonist 1 μM + BFNA” value in experiment [1] (1 μM compound + 1 μM β-funaltrexamine) came to 6.5%. The “% DAMGO + BFNA” value in experiment [1] (1 μM compound + BFNA relative to DAMGO + BFNA) came to 24.5%. For the same compound, the “% DAMGO (1 μM)” value in experiment [1] (1 μM compound relative to DAMGO) was 86.6%. Moreover, the inhibition at 0.01 µM in experiment [2] (setting [3]) came to 38.7%. Also, the inhibition at 0.1 µM in experiment [2] (setting [4]) is 43.7%. Besides, the inhibition at 1 µM in experiment [2] (setting [5]) was 49.9%.
Turning to `CC(=O)c1ccc(S(=O)(=O)N2CCOC23CCNCC3)cc1` [Compound C0046], the “% DAMGO (0.1 μM)” value in experiment [1] (setting [6]) came to 197.4%. The “MOR agonist activity, percent [35S]GTPγS binding at the stated compound concentration” value (shortened to “MOR agonist activity, percent”) came to 286.2% in experiment [1] (setting [7]), 156.8% in experiment [1] (setting [8]) and 492.9% in experiment [1] (setting [11]). For the same compound, the “% DAMGO + BFNA” value in experiment [1] (setting [9]) was found to be 356.4%. For the same compound, the “% DAMGO (1 μM)” value in experiment [1] (setting [10]) is given as 211.5%. In addition, the inhibition at 0.01 µM in experiment [2] (setting [3]) was found to be 30.8%. For the same compound, in experiment [2] (setting [4]), the inhibition at 0.1 µM stood at 35.7%. For the same compound, in experiment [2] (setting [5]), the inhibition at 1 µM stood at 42.2%.
As to `O=S(=O)(c1ccc(Cl)cc1)N1CCC2(CC1)OCCN2S(=O)(=O)c1ccc(Cl)cc1` [Compound C0067], the “% DAMGO (0.1 μM)” value in experiment [1] (setting [12]) amounted to 82.9%. Besides, the “Concentration of FLNA-Binding Compound as Agonist 0.1 μM” value in experiment [1] (setting [13]) turned out to be 142.7%. Moreover, the “Concentration of FLNA-Binding Compound as Agonist 1 μM + BFNA” value in experiment [1] (setting [14]) is on record as 33.5%. Besides, in experiment [1] (setting [15]), the “% DAMGO + BFNA” value stood at 97.1%. For the same compound, the “% DAMGO (1 μM)” value in experiment [1] (setting [16]) came out at 81.5%. The “Concentration of FLNA-Binding Compound as Agonist 1 μM” value in experiment [1] (setting [17]) was 179.0%. The inhibition at 0.01 µM in experiment [2] (setting [3]) is 31.3%. Moreover, in experiment [2] (setting [4]), the inhibition at 0.1 µM was 39.7%. Also, the inhibition at 1 µM in experiment [2] (setting [5]) was 45%.
As for `CCN1CCC2(CC1)OCCN2S(=O)(=O)c1ccc(C(C)=O)cc1` [Compound C0094M], in experiment [1] (setting [6]), the “% DAMGO (0.1 μM)” value turned out to be 100.2%. In addition, the “MOR agonist activity, percent” value in experiment [1] (setting [7]) turned out to be 172.5%; in experiment [1] (setting [8]), 115.3%; in experiment [1] (setting [11]) it was 263.5%. Besides, in experiment [1] (setting [9]), the “% DAMGO + BFNA” value was 334.2%. In experiment [1] (setting [10]), the “% DAMGO (1 μM)” value was 119.9%. Besides, in experiment [2] (setting [3]), the inhibition at 0.01 µM amounted to 43%. Moreover, in experiment [2] (setting [4]), the inhibition at 0.1 µM came to 52.8%. The inhibition at 1 µM in experiment [2] (setting [5]) was determined as 57.5%.
In the case of `COc1c2c(cc3c1C(CC(O)CCc1ccccc1)[N+](C)(C)CC3)OCO2` (stereo not drawn) [Compound B0052], the “% DAMGO (0.1 μM)” value in experiment [1] (Series B, 0.1 μM compound, relative to DAMGO) amounted to 58.1%. Further, the “MOR agonist activity, percent” value came out at 98.2% in experiment [1] (Series B, 0.1 μM compound, [35S]GTPγS binding to Gαo, striatal membranes); 40.9% in experiment [1] (Series B, 1 μM compound + 1 μM β-FNA); 151.7% in experiment [1] (Series B, 1 μM compound, [35S]GTPγS binding to Gαo, striatal membranes). The “% DAMGO + BFNA” value in experiment [1] (Series B, 1 μM compound + β-FNA, relative to DAMGO + BFNA) is 246.4%. Also, the “% DAMGO (1 μM)” value in experiment [1] (Series B, 1 μM compound, relative to DAMGO) is recorded as 69.3%. Further, in experiment [2] (setting [18]), the inhibition at 0.01 µM is 30.2%. The inhibition at 0.1 µM in experiment [2] (setting [19]) turned out to be 39.1%. Also, the inhibition at 1 µM in experiment [2] (setting [20]) came out at 44.3%.
Consider `CCc1ccc(S(=O)(=O)N2CCOC23CCN(CC2CC2)CC3)cc1` [Compound C0135M], for which the “% DAMGO (0.1 μM)” value in experiment [1] (setting [6]) came out at 85.3%. In addition, the “MOR agonist activity, percent” value is recorded as 161.3% in experiment [1] (setting [7]), 113.3% in experiment [1] (setting [8]) and 310.1% in experiment [1] (setting [11]). The “% DAMGO + BFNA” value in experiment [1] (setting [9]) was 233.6%. The “% DAMGO (1 μM)” value in experiment [1] (setting [10]) is 124.9%. Besides, the inhibition at 0.01 µM in experiment [2] (setting [18]) was found to be 53.9%. The inhibition at 0.1 µM in experiment [2] (setting [19]) stood at 55.1%. For the same compound, the inhibition at 1 µM in experiment [2] (setting [20]) is 62.3%.
For `N#Cc1ccccc1S(=O)(=O)N1CCC2(CC1)OCCN2S(=O)(=O)c1ccccc1C#N` [Compound C0004], the “% DAMGO (0.1 μM)” value in experiment [1] (setting [12]) was 72.1%. The “Concentration of FLNA-Binding Compound as Agonist 0.1 μM” value in experiment [1] (setting [13]) was found to be 122.0%. Moreover, the “Concentration of FLNA-Binding Compound as Agonist 1 μM + BFNA” value in experiment [1] (setting [14]) came to 65.8%. The “% DAMGO + BFNA” value in experiment [1] (setting [15]) worked out at 99.7%. Moreover, in experiment [1] (setting [16]), the “% DAMGO (1 μM)” value is on record as 85.4%. Besides, the “Concentration of FLNA-Binding Compound as Agonist 1 μM” value in experiment [1] (setting [17]) stood at 228.4%. In addition, the inhibition at 0.01 µM in experiment [2] (setting [18]) is 37.6%. In addition, in experiment [2] (setting [19]), the inhibition at 0.1 µM turned out to be 42.3%. In addition, the inhibition at 1 µM in experiment [2] (setting [20]) stood at 44.7%.

Broadly, the inhibition is the relative decrease from the control value, in per cent.
